PubChem BioAssay AID1259407 (Chemical Carcinogenesis Research Information System (CCRIS), 2018)
Calls of active or inactive are those of the source. The rule behind the calls is not given here.

Tested on: CCRIS mutagenicity, Ames/micronucleus/aberration tests
Experiment: CCRIS mutagenicity studies

C=C(Cl)Cl
mutagenic call (End Point: IN VITRO CHROMOSOMAL ABERRATIONS, Test System: CHINESE HAMSTER LUNG (CHL), Metabolic Activation: NONE): inactive; negative | mutagenic call (End Point: IN VITRO CHROMOSOMAL ABERRATIONS, Test System: CHINESE HAMSTER LUNG (CHL), Metabolic Activation: RAT. LIVER, S-9, KC-400): active; positive | mutagenic call (End Point: IN VIVO MICRONUCLEUS, Test System: BONE MARROW POLYCHROMATIC ERYTHROCYTES, Species: MOUSE, Strain/Sex: DDY/MALE, Route: GAVAGE (ORAL) ONCE): inactive; negative | mutagenic call (End Point: IN VIVO MICRONUCLEUS, Test System: BONE MARROW POLYCHROMATIC ERYTHROCYTES, Species: MOUSE, Strain/Sex: DDY/MALE, Route: GAVAGE (ORAL), 4 DOSES AT 24 HR INTERVALS): inactive; negative | mutagenic call (End Point: IN VIVO MICRONUCLEUS, Test System: MICRONUCLEATED POLYCHROMATIC ERYTHROCYTES, Species: MOUSE, Strain/Sex: ICR/FEMALE (PREGNANT), Route: IP INJECTION ON 18 D OF GESTATION): inactive; negative | mutagenic call (Test System: AMES SALMONELLA TYPHIMURIUM, Strain/Indicator: RSJ100, Metabolic Activation: NONE, Method: VAPOR PHASE): inactive; negative | mutagenic call (Test System: AMES SALMONELLA TYPHIMURIUM, Strain/Indicator: TA97, Metabolic Activation: NONE, Method: STANDARD PLATE): inactive; negative | mutagenic call (Test System: AMES SALMONELLA TYPHIMURIUM, Strain/Indicator: TA97, Metabolic Activation: RAT, LIVER, S-9, AROCLOR 1254, Method: STANDARD PLATE): active; positive | mutagenic call (Test System: AMES SALMONELLA TYPHIMURIUM, Strain/Indicator: TA98, Metabolic Activation: NONE, Method: STANDARD PLATE): inactive; negative | mutagenic call (Test System: AMES SALMONELLA TYPHIMURIUM, Strain/Indicator: TA98, Metabolic Activation: RAT, LIVER, S-9, AROCLOR 1254, Method: STANDARD PLATE): active; positive | mutagenic call (Test System: AMES SALMONELLA TYPHIMURIUM, Strain/Indicator: TA98, Metabolic Activation: RAT, LIVER, S-9, PCB, Method: GAS EXPOSURE): inactive; negative | mutagenic call (Test System: AMES SALMONELLA TYPHIMURIUM, Strain/Indicator: TA100, Metabolic Activation: MOUSE, LIVER, S-9, PHENOBARBITAL, Method: DESICCATOR): active; positive | mutagenic call (Test System: AMES SALMONELLA TYPHIMURIUM, Strain/Indicator: TA100, Metabolic Activation: NONE, Method: STANDARD PLATE): active; positive | mutagenic call (Test System: AMES SALMONELLA TYPHIMURIUM, Strain/Indicator: TA100, Metabolic Activation: RAT, LIVER, S-9, AROCLOR 1254, Method: DESICCATOR): active; positive | mutagenic call (Test System: AMES SALMONELLA TYPHIMURIUM, Strain/Indicator: TA100, Metabolic Activation: RAT, LIVER, S-9, AROCLOR 1254, Method: STANDARD PLATE): active; positive | mutagenic call (Test System: AMES SALMONELLA TYPHIMURIUM, Strain/Indicator: TA100, Metabolic Activation: RAT, LIVER, S-9, PCB, Method: GAS EXPOSURE): active; positive | mutagenic call (Test System: AMES SALMONELLA TYPHIMURIUM, Strain/Indicator: TA100, Metabolic Activation: RAT, LIVER, S-9, PHENOBARBITAL, Method: DESICCATOR): active; positive | mutagenic call (Test System: AMES SALMONELLA TYPHIMURIUM, Strain/Indicator: TA104, Metabolic Activation: NONE, Method: STANDARD PLATE): inactive; negative | mutagenic call (Test System: AMES SALMONELLA TYPHIMURIUM, Strain/Indicator: TA104, Metabolic Activation: RAT, LIVER, S-9, AROCLOR 1254, Method: STANDARD PLATE): inactive; negative | mutagenic call (Test System: AMES SALMONELLA TYPHIMURIUM, Strain/Indicator: TA1530, Metabolic Activation: MOUSE, LIVER, S-9, PHENOBARBITAL, Method: DESICCATOR): active; positive | mutagenic call (Test System: AMES SALMONELLA TYPHIMURIUM, Strain/Indicator: TA1535, Metabolic Activation: HAMSTER, LIVER, S-9, AROCLOR 1254, Method: DESICCATOR): active; positive | mutagenic call (Test System: AMES SALMONELLA TYPHIMURIUM, Strain/Indicator: TA1535, Metabolic Activation: MOUSE, KIDNEY, S-9, Method: DESICCATOR): active; positive | mutagenic call (Test System: AMES SALMONELLA TYPHIMURIUM, Strain/Indicator: TA1535, Metabolic Activation: MOUSE, LIVER, S-9, AROCLOR 1254, Method: DESICCATOR): active; positive | mutagenic call (Test System: AMES SALMONELLA TYPHIMURIUM, Strain/Indicator: TA1535, Metabolic Activation: RAT, LIVER, S-9, AROCLOR 1254, Method: DESICCATOR): active; positive | mutagenic call (Test System: AMES SALMONELLA TYPHIMURIUM, Strain/Indicator: TA1535, Metabolic Activation: RAT, LIVER, S-9, PCB, Method: GAS EXPOSURE): active; positive | mutagenic call (Test System: AMES SALMONELLA TYPHIMURIUM, Strain/Indicator: TA1535, Metabolic Activation: RAT, LIVER, S-9, PHENOBARBITAL, Method: DESICCATOR): active; positive | mutagenic call (Test System: AMES SALMONELLA TYPHIMURIUM, Strain/Indicator: TA1537, Metabolic Activation: RAT, LIVER, S-9, PCB, Method: GAS EXPOSURE): inactive; negative | mutagenic call (Test System: AMES SALMONELLA TYPHIMURIUM, Strain/Indicator: TA1538, Metabolic Activation: RAT, LIVER, S-9, PCB, Method: GAS EXPOSURE): inactive; negative | mutagenic call (Test System: AMES SALMONELLA TYPHIMURIUM, Strain/Indicator: TA2637, Metabolic Activation: RAT, LIVER, S-9, PCB, Method: GAS EXPOSURE): inactive; negative | mutagenic call (Test System: AMES SALMONELLA TYPHIMURIUM, Strain/Indicator: TPT100, Metabolic Activation: NONE, Method: VAPOR PHASE): active; positive | mutagenic call (Test System: E. COLI, Strain/Indicator: WP2 UVRA (PKM101), Metabolic Activation: RAT, LIVER, S-9, PCB, Method: GAS EXPOSURE): active; positive | mutagenic call (Test System: E. COLI, Strain/Indicator: WP2 UVRA, Metabolic Activation: RAT, LIVER, S-9, PCB, Method: GAS EXPOSURE): active; positive | mutagenic call (Test System: MOUSE LYMPHOMA, Strain/Indicator: L5178Y (TK+/TK-), Metabolic Activation: NONE, Method: SUSPENSION/PLATE): inactive; negative | mutagenic call (Test System: MOUSE LYMPHOMA, Strain/Indicator: L5178Y (TK+/TK-), Metabolic Activation: RAT, LIVER, S-9, Method: SUSPENSION/PLATE): active; positive

COc1cc(O)ccc1Nc1c2ccccc2nc2ccccc12
mutagenic call (Test System: AMES SALMONELLA TYPHIMURIUM, Strain/Indicator: TA1537, Metabolic Activation: NONE, Method: STANDARD PLATE): active; positive

ClCC(Br)CCl
mutagenic call (Test System: AMES SALMONELLA TYPHIMURIUM, Strain/Indicator: TA100, Metabolic Activation: RAT, LIVER, MICROSOMES, PHENOBARBITAL, NADPH COFACTORS, Method: STANDARD PLATE): active; positive | mutagenic call (Test System: AMES SALMONELLA TYPHIMURIUM, Strain/Indicator: TA100, Metabolic Activation: RAT, LIVER, MICROSOMES, PHENOBARBITAL, Method: STANDARD PLATE): inactive; negative
